The subject of data set [1] is PBMC. Briefly: Cytotoxicity against human PBMC at 1 to 100 uM after 48 hrs by propidium iodure labeling. The class given is cell-based.
Data set [2] relates to PBMC. Kind of data set: Cytotoxicity against human PBMC at 1 to 100 uM after 48 hrs by flow cytometry. The class given is cell-based. In general terms: Flow cytometry measures light scatter and fluorescence of single cells or particles in a stream.
Data set [3] concerns PBMC. Briefly: Antiinflammatory activity in human PBMC assessed as inhibition of LPS-induced IL-6 production at 1 to 100 uM after 48 hrs by ELISA. The class given is functional, cell-based.
Data set [4] relates to PBMC. Kind of data set: Antiinflammatory activity in human PBMC assessed as inhibition of LPS-induced TNFalpha production after 48 hrs by ELISA. The class given is functional, cell-based. Background: In an ELISA, binding on a coated surface is turned into a signal by an enzyme label.
Data set [5] deals with PBMC. Briefly: Antiinflammatory activity in human PBMC assessed as inhibition of LPS-induced TNFalpha production at 1 to 100 uM after 48 hrs by ELISA. The data set is classed as functional, cell-based.
Data set [6] concerns PBMC. Briefly: Antiinflammatory activity in human PBMC assessed as inhibition of LPS-induced TNFalpha production at 100 uM after 48 hrs by ELISA. The data set is classed as functional, cell-based.
The subject of data set [7] is PBMC. Kind of data set: Antiinflammatory activity in human PBMC assessed as inhibition of LPS-induced IL-6 production at 100 uM after 48 hrs by ELISA. The class given is functional, cell-based.
The subject of data set [8] is PBMC. Briefly: Antiinflammatory activity in human PBMC assessed as inhibition of LPS-induced TNFalpha production at 1 to 10 uM after 48 hrs by ELISA. The data set is classed as functional, cell-based.
Data set [9] has as its system PBMC. Briefly: Antiinflammatory activity in human PBMC assessed as inhibition of LPS-induced IL-6 production at 1 to 10 uM after 48 hrs by ELISA. The data set is classed as functional, cell-based.

Active and inactive are the calls of the source. The rule behind the calls is not given here.

`O=C(Nc1ccccc1)c1cc2cccnc2n1S(=O)(=O)c1ccccc1`: the figures for the Activity entry with PBMC [1], with PBMC [2] and in the data set on PBMC [4] were “Non-toxic”, “Non-toxic” and “Dose-dependent effect”, respectively. Also, in the data set on PBMC [3], the outcome was Active.
In the case of `O=C(Nc1cccc(S(=O)(=O)N2CCSCC2)c1)c1cc2cccnc2[nH]1`, the Activity result in the data set with PBMC [1] and in the data set on PBMC [2] was “Non-toxic” in each case. For the same compound, the outcome in the data set on PBMC [5] and in the data set with PBMC [3] was inactive.
Regarding `Cc1ccc(S(=O)(=O)N2C(=O)c3cc4ccccc4n3C2=O)cc1`, the Activity entry in the data set with PBMC [1] and in the data set on PBMC [2] was “Non-toxic” in each case.
On to `O=C(Nc1cccc(S(=O)(=O)N2CCN(c3ccccc3)CC2)c1)c1cc2cccnc2[nH]1`, for which the Activity result in the data set with PBMC [1] and in the data set with PBMC [2] was “Non-toxic” throughout. The result in the data set on PBMC [5] and in the data set with PBMC [3] was inactive.
For the compound `O=C1C2Cc3ccccc3N2C(=O)N1S(=O)(=O)c1ccc2ccccc2c1` (centres undefined), the Activity entry in the data set on PBMC [1] and in the data set on PBMC [2] was “Non-toxic” in each case.
Turning to `O=C1c2cc3cccnc3n2C(=O)N1S(=O)(=O)c1ccccc1`, the Activity result in the data set with PBMC [1] and in the data set with PBMC [2] was “Non-toxic” each time. Besides, the outcome in the data set on PBMC [5] was Active. In addition, the outcome with PBMC [3] was inactive.
As to `CCOC(=O)c1ccc(S(=O)(=O)CN2C(=O)C3Cc4ccccc4CN3S2(=O)=O)cc1` (centres undefined), the Activity result with PBMC [1] and in the data set on PBMC [2] was “Non-toxic” throughout. In addition, the outcome with PBMC [6] and with PBMC [7] was Active. In addition, the result in the data set with PBMC [8] and in the data set on PBMC [9] was inactive.
Turning to `O=C(Nc1ccccc1)c1cc2cccnc2[nH]1`, the Activity entry with PBMC [1] and with PBMC [2] was “Non-toxic” in each case. Further, the outcome in the data set with PBMC [5] and in the data set with PBMC [3] was inactive.
With `O=C(Nc1cccc(S(=O)(=O)N2CCOCC2)c1)c1cc2cccnc2[nH]1`, the Activity entry in the data set on PBMC [1] and with PBMC [2] was “Non-toxic” in each case. Besides, the outcome with PBMC [5] and with PBMC [3] was inactive.

The values above are taken from ChEMBL document CHEMBL1667775, “Design, synthesis and biological evaluation of new thalidomide analogues as TNF-α and IL-6 production inhibitors” (Bioorg Med Chem Lett, 2011).
